Measurements as given in patent US20250197387A1, “BCL-XL DEGRADERS AND USES THEREOF” (Kymera Therapeutics, Inc., priority 2021, published 2025).

How the values were obtained:
BCL-XL [1] = biological target: T1, BCL-XL (Homo sapiens, UniProt Q07817); experiment: BCL-XL degradation assay, western blot in MOLT-4 cells, 16 h; format: cell-based; conditions: western blot, MOLT-4 cells, 16 h; for Dmax: read-out: Bcl-xL WB in MOLT-4 degradation 16 h: Average Dmax %; for DC50: read-out: Bcl-xL WB in MOLT-4 degradation 16 h: Mean external-Abs DC50
T1 construct: endogenous in cells; host or cells: MOLT-4
Experimental: Compounds treatment: compounds were reconstituted in DMSO to make a stock concentration of 10 mM. MOLT-4 cells were maintained in RPMI-1640+10% FBS+1% Penicillin-Streptomycin. Cells were seeded into 6-well plates in 2 mL at the seeding density of 2e6 cells/mL. Compounds were added to the cells to a final concentration ranging 0.02-10 μM. After 16 hr incubation at 37° C., in a CO2 incubator, cells were collected in an Eppendorf tube and centrifuged at 200×g for 5 minutes, the supernatant removed and pellets washed with ice-cold PBS, centrifuged and supernatant removed again. Then. 50 μl of pre-chilled RIPA lysis buffer (Boston BioProducts. BP-115D) with protease and phosphatase inhibitors (Roche Applied Science. #04906837001 and #04693116001) was added into cell pellet to lyze the cells for 20 minutes under 4° C. Cell lysates were spin at 13000 rpm for 10 minutes. Supernatants were collected and protein concentration was measured by BCA assay kit (Solarbio. PC0020-500) following the manufacturer's protocol. Samples' final protein concentration was adjusted to 3.75 μg/uL with the RIPA lysis buffer based on BCA assay results and 4× loading buffer (Invitrogen. NP0007) was added into the samples and samples were heated to 85° C., for 10 min and then let cool at RT. Samples were centrifuged at 13000 rpm for 10 min and then loaded into a 26-well NuPAGER. Novex 4-12% Bis-Tris Midi Gel (Invitrogen. WG1403BOX) and run in NuPAGER MOPS SDS Running Buffer (Invitrogen. NP0001) for 180 minutes at 70 V into a XCell4 SureLock™ Midi-Cell Runner (Invitrogen. WR0100). Gel were transferred using the Invitrogen iBlot gel transfer device (Invitrogen. IB21001) and the nitrocellulose transfer stacks (Invitrogen, IB23001) with Program PO for 9 minutes. The membrane was then blocked with 5% bovin serum albumin for 1 hr at RT, then incubated with primary antibodies diluted in blocking buffer (LI-COR. 927-60001) and shake at 4° C., overnight. The primary antibodies were anti-BCL-xL antibody (CST. 2762:1:1000), anti-beta-actin (CST. 3700; 1:5000) and anti-GAPDH (CST. 97166:1:5000). Membranes were then washed three times with PBST for 15 minutes at RT. Secondary antibodies IR-Dye 680 CW Goat anti Mouse IgG (LI-COR. 926-68070) and IR-Dye 800 CW Goat anti Rabbit IgG (LI-COR. 926-32211) were diluted at a ratio of 1:10000 into PBST and membranes incubated for 1 hour at RT. Membranes were then washed three times with PBST for 15 minutes at RT. The western blot images were obtained using Odyssey Imaging System and quantified using Image Studio Lite Ver 5.2 software.
(§1) The letter codes for BCL-XL DC50 include: A (<0.01 μM); B (0.01-0.1 μM); C (>[…]); D (>0.5-1.0 μM); and E (>1.0 μM). The letter codes for Dmax % include A (>75%); B (50 to 75%); C (<50%).

BCL-XL [2] = biological target: T1, BCL-XL; experiment: Bcl-xL ELISA degradation in MOLT-4 cells, 6 h; format: cell-based; conditions: for DC50: read-out: Bcl-xL ELISA in MOLT-4 degradation 6 h: Mean external-Abs DC50
Experimental: as §1

T1 sequence (Q07817 whole entry): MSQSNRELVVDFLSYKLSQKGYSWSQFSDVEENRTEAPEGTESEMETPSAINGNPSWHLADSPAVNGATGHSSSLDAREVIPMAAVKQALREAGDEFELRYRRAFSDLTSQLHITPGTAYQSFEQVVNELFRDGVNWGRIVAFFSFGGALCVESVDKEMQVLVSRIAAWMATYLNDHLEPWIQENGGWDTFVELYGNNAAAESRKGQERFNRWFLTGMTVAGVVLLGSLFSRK

SMILES | Dmax (BCL-XL [1]) [%] | DC50 (BCL-XL [1]) [µM] | Dmax (BCL-XL [2]) [%] | DC50 (BCL-XL [2]) [µM]
Cc1ncsc1-c1ccc(CNC(=O)[C@@H]2C[C@@H](O)CN2C(=O)[C@@H](NC(=O)C2(F)CC2)C(C)(C)C)c(OCCCCCCCCC(=O)N(C)CC#Cc2ccc(OCCCc3sc(N4CCc5cccc(C(=O)Nc6nc7ccccc7s6)c5C4)nc3C(=O)O)c(F)c2)c1 [I-386] | > 75 | 0.01 to 0.1 |  | 
Cc1ncsc1-c1ccc(CNC(=O)[C@@H]2C[C@@H](O)CN2C(=O)C(c2cc(OCCCCCC(=O)N(C)CC#Cc3ccc(OCCCc4sc(N5CCc6cccc(C(=O)Nc7nc8ccccc8s7)c6C5)nc4C(=O)O)c(F)c3)no2)C(C)C)cc1 (stereo partly shown) [I-87] | > 75 | 0.01 to 0.1 |  | 
Cc1ncsc1-c1ccc([C@H](C)NC(=O)[C@@H]2C[C@@H](O)CN2C(=O)[C@@H](NC(=O)C2(F)CC2)C(C)(C)C)c(OCC(=O)N2CCN(CC[C@H](CSc3ccccc3)Nc3ccc(S(=O)(=O)NC(=O)c4ccc(N5CCN(CC6=C(c7ccc(Cl)cc7)CCC(C)(C)C6)CC5)cc4)cc3S(=O)(=O)C(F)(F)F)CC2)c1 [I-112] | 50 to 75 | 0.5 to 1 |  | 
Cc1ncsc1-c1ccc([C@H](C)NC(=O)[C@@H]2C[C@@H](O)CN2C(=O)[C@@H](NC(=O)CCCC(=O)N(C)CCN(C)c2cc3c(c(C(=O)Nc4nc5ccccc5s4)c2)CN(c2ccc(-c4cnn(CC5CCCCC5)c4C)c(C(=O)O)n2)CC3)C(C)(C)C)cc1 [I-110] | < 50 | > 1 |  | 
Cc1ncsc1-c1ccc([C@H](C)NC(=O)[C@@H]2C[C@@H](O)CN2C(=O)[C@@H](NC(=O)CCCC(=O)N2CCN(CCCC3(Cn4ncc(-c5ccc(N6CCc7cccc(C(=O)Nc8nc9ccccc9s8)c7C6)nc5C(=O)O)c4C)CCCCC3)CC2)C(C)(C)C)cc1 [I-130] | 50 to 75 | 0.1 to 0.5 |  | 
C#Cc1ccc(CNC(=O)[C@@H]2C[C@@H](O)CN2C(=O)[C@@H](NC(=O)C2(F)CC2)C(C)(C)C)c(OCC(=O)N2CCN(CC[C@H](CSc3ccccc3)Nc3ccc(S(=O)(=O)NC(=O)c4ccc(N5CCN(CC6=C(c7ccc(Cl)cc7)CCC(C)(C)C6)CC5)cc4)cc3S(=O)(=O)C(F)(F)F)CC2)c1 [I-92] | > 75 | 0.1 to 0.5 |  | 
Cc1ncsc1-c1ccc(CNC(=O)[C@@H]2C[C@@H](O)CN2C(=O)[C@@H](NC(=O)C2(F)CC2)C(C)(C)C)c(OCCCC(=O)N(C)CC#Cc2ccc(OCCCc3sc(N4CCc5cccc(C(=O)Nc6nc7ccccc7s6)c5C4)nc3C(=O)O)c(F)c2)c1 [I-6] | > 75 | 0.1 to 0.5 |  | 
Cc1ncsc1-c1ccc([C@H](C)NC(=O)[C@@H]2C[C@@H](O)CN2C(=O)[C@@H](NC(=O)CCCCCCCS(=O)(=O)NC(=O)c2ccc(N3CCN(CC4=C(c5ccc(Cl)cc5)CCC(C)(C)C4)CC3)cc2)C(C)(C)C)cc1 [I-107] | 50 to 75 | > 1 |  | 
Cc1ncsc1-c1ccc(CNC(=O)[C@@H]2C[C@@H](O)CN2C(=O)[C@@H](NC(=O)C2(F)CC2)C(C)(C)C)c(O[C@H]2C[C@H](C(=O)N3CCN(CC[C@H](CSc4ccccc4)Nc4ccc(S(=O)(=O)NC(=O)c5ccc(N6CCN(CC7=C(c8ccc(Cl)cc8)CCC(C)(C)C7)CC6)cc5)cc4S(=O)(=O)C(F)(F)F)CC3)C2)c1 [I-91] | < 50 | > 1 |  | 
Cc1ncsc1-c1ccc([C@H](C)NC(=O)[C@@H]2C[C@@H](O)CN2C(=O)[C@@H](NC(=O)CCCCCCCC(=O)N(C)CCCc2cccc(F)c2OCCCc2sc(N3CCc4cccc(C(=O)Nc5nc6ccccc6s5)c4C3)nc2C(=O)O)C(C)(C)C)cc1 [I-11] | > 75 | 0.1 to 0.5 |  | 
Cc1ncsc1-c1ccc([C@H](C)NC(=O)[C@@H]2C[C@@H](O)CN2C(=O)[C@@H](NC(=O)[C@H]2CC[C@H](CC(=O)N3CCN(CC[C@H](CSc4ccccc4)Nc4ccc(S(=O)(=O)NC(=O)c5ccc(N6CCN(CC7=C(c8ccc(Cl)cc8)CCC(C)(C)C7)CC6)cc5)cc4S(=O)(=O)C(F)(F)F)CC3)CC2)C(C)(C)C)cc1 [I-391] | > 75 | 0.01 to 0.1 |  | 
Cc1cc(N(CCN(C)C(=O)CCCOc2cc(-c3scnc3C)ccc2CNC(=O)[C@@H]2C[C@@H](O)CN2C(=O)[C@@H](NC(=O)C2(F)CC2)C(C)(C)C)c2ccc(-c3cnn(CC4CCCCC4)c3C)c(C(=O)O)n2)nnc1Nc1nc2ccccc2s1 [I-102] | 50 to 75 | > 1 |  | 
Cc1ncsc1-c1ccc(CNC(=O)[C@@H]2C[C@@H](O)CN2C(=O)[C@@H](NC(=O)C2(F)CC2)C(C)(C)C)c(OC2CCN(CC3CCN(C(=O)c4nc(N5CCc6cccc(C(=O)Nc7nc8ccccc8s7)c6C5)ccc4-c4cnn(CC5CCCCC5)c4C)CC3)CC2)c1 [I-227] |  |  | < 50 | > 1
Cc1ncsc1-c1ccc([C@H](C)NC(=O)[C@@H]2C[C@@H](O)CN2C(=O)[C@@H](NC(=O)C2CCN(c3ccc(S(=O)(=O)NC(=O)c4nc(N5CCc6cccc(C(=O)Nc7nc8ccccc8s7)c6C5)ccc4-c4cnn(CC5CCCCC5)c4C)cc3Cl)CC2)C(C)(C)C)cc1 [I-274] |  |  | 50 to 75 | 0.01 to 0.1
Cc1ncsc1-c1ccc([C@H](C)NC(=O)[C@@H]2C[C@@H](O)CN2C(=O)[C@@H](NC(=O)N2CCC(N3CCN(C(=O)c4nc(N5CCc6cccc(C(=O)Nc7nc8ccccc8s7)c6C5)ccc4-c4cnn(CC5CCCCC5)c4C)CC3)CC2)C(C)(C)C)cc1 [I-247] |  |  | < 50 | > 1
Cc1cc([C@@H](C(=O)N2C[C@H](O)C[C@H]2C(=O)NCc2ccc(-c3scnc3C)cc2OCCN2CCN(C(=O)c3nc(N4CCc5cccc(C(=O)Nc6nc7ccccc7s6)c5C4)ccc3-c3cnn(CC4CCCCC4)c3C)CC2)C(C)C)on1 [I-267] |  |  | < 50 | > 1
Cc1ncsc1-c1ccc([C@H](C)NC(=O)[C@@H]2C[C@@H](O)CN2C(=O)[C@@H](NC(=O)N2CCC(N3CCC(S(=O)(=O)NC(=O)c4nc(N5CCc6cccc(C(=O)Nc7nc8ccccc8s7)c6C5)ccc4-c4cnn(CC5CCCCC5)c4C)CC3)CC2)C(C)(C)C)cc1 [I-258] |  |  | 50 to 75 | 0.1 to 0.5
Cc1ncsc1-c1ccc([C@H](C)NC(=O)[C@@H]2C[C@@H](O)CN2C(=O)[C@@H](NC(=O)C2CCN(c3ccc(S(=O)(=O)NC(=O)c4nc(N5CCc6cccc(C(=O)Nc7nc8ccccc8s7)c6C5)ccc4-c4cnn(CC5(CCC(=O)O)CCCCC5)c4C)cc3)CC2)C(C)(C)C)cc1 [I-255] |  |  | 50 to 75 | 0.1 to 0.5
Cc1ncsc1-c1ccc([C@H](C)NC(=O)[C@@H]2C[C@@H](O)CN2C(=O)[C@@H](NC(=O)C2CC3CCC(C2)N3c2ccc(S(=O)(=O)NC(=O)c3nc(N4CCc5cccc(C(=O)Nc6nc7ccccc7s6)c5C4)ccc3-c3cnn(CC4CCCCC4)c3C)cc2)C(C)(C)C)cc1 (stereo partly shown) [I-278] |  |  | > 75 | 0.01 to 0.1
Cc1ncsc1-c1ccc([C@H](C)NC(=O)[C@@H]2C[C@@H](O)CN2C(=O)C(c2cc(OC3CCN(CCCCNC(=O)c4nc(N5CCc6cccc(C(=O)Nc7nc8ccccc8s7)c6C5)ccc4-c4cnn(CC5CCCCC5)c4C)CC3)no2)C(C)C)cc1 (stereo partly shown) [I-233] |  |  | < 50 | > 1
Cc1ncsc1-c1ccc([C@H](C)NC(=O)[C@@H]2C[C@@H](O)CN2C(=O)C(c2cc(OC3CCN(c4ccc(S(=O)(=O)NC(=O)c5nc(N6CCc7cccc(C(=O)Nc8nc9ccccc9s8)c7C6)ccc5-c5cnn(CC6CCCCC6)c5C)cc4)CC3)no2)C(C)C)cc1 (stereo partly shown) [I-231] |  |  | < 50 | 
Cc1cc([C@@H](C(=O)N2C[C@H](O)C[C@H]2C(=O)NCc2ccc(-c3scnc3C)cc2OCCCCCCN(C)C(=O)c2nc(N3CCc4cccc(C(=O)Nc5nc6ccccc6s5)c4C3)ccc2-c2cnn(CC3CCCCC3)c2C)C(C)C)on1 [I-264] |  |  | 50 to 75 | 0.01 to 0.1
